Test results published in patent US5922715A, “5-aminoalkoxy-1, 4-dihydroquinoxaline-2, 3-diones” (American Home Products Corporation, priority 1998, dated 1999).

Tests used:
[1] = molecular target: T1, dopamine D2 (dopamine autoreceptor) (Rattus norvegicus, UniProt P61169); test: Affinity for the dopamine autoreceptor: 3H-quinpirole (Quin.) binding, homogenized rat striatal brain tissue
T1 construct: homogenized rat striatal brain tissue; from tissue; host or cells: rat striatal brain tissue, homogenized
Description: Affinity for the dopamine autoreceptor was established by a modification of the standard experimental test procedure of Seamen and Schaus, European Journal of Pharmacology 203, 105-109, 1991, wherein homogenized rat striatal brain tissue is incubated with ^3 H-quinpirole (Quin.) and various concentrations of test compound, filtered and washed and counted in a Betaplate scintillation counter.

dopamine D-2 receptor = molecular target: T2, dopamine D-2 receptor (Rattus norvegicus, UniProt P61169); test: High affinity for the dopamine D-2 receptor: 3H-spiroperidol (Spiper.) binding, homogenized limbic brain tissue; details: read-out: IC50 (nM) D2 Spiper
T2 construct: homogenized limbic brain tissue; from tissue; host or cells: limbic brain tissue, homogenized
Description: High affinity for the dopamine D-2 receptor was established by the standard experimental test procedure of Fields, et al., Brain Res., 136, 578 (1977) and Yamamura et al., eds., Neurotranrutter Receptor Binding, Raven Press, N.Y. (1978) wherein homogenized limbic brain tissue is incubated with ^3 H-spiroperidol (Spiper.) and various concentrations of test compound, filtered and washed and shaken with Hydrofluor scintillation cocktail (National Diagnostics) and counted in a Packard 460 CD scintillation counter.

T1 sequence (P61169 whole entry): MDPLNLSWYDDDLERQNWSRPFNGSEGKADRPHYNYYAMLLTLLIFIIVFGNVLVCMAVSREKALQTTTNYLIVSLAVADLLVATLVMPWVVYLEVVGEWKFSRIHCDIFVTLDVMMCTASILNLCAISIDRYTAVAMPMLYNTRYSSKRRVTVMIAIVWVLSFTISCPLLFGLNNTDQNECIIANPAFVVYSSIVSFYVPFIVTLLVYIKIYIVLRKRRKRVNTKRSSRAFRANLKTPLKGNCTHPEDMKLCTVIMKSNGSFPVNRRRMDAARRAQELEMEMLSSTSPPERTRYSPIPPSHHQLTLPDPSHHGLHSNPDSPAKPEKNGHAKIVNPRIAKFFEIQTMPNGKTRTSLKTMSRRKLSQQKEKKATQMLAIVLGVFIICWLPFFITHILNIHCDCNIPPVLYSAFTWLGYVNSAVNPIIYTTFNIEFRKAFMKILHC
T2 sequence (P61169 whole entry): as above

Work on `O=c1[nH]c2cccc(OCCNCc3ccccc3)c2[nH]c1=O` [Example 1, 5-(2-Benzylamino-ethoxy)-1,4-dihydro-quinoxaline-2,3-dione] yielded an IC50 [1] of 20.8 nM and an IC50 (dopamine D-2 receptor) of 2190 nM.
`O=c1[nH]c2cccc(OCCNCc3ccc(Cl)cc3)c2[nH]c1=O` [Example 2, 5-[2-(4-Chloro-benzylamino)-ethoxy]-1,4-dihydro-quinoxaline-2,3-dione] gave an IC50 [1] of 64.6 nM.
